Data from a melting point compilation (Tetko et al.; mined from patent text by program, amines drawn as free bases though some values may be those of a salt).

| Structure (SMILES) | melting point [°C] |
| --- | --- |
| O=C(OCC1OC(c2ccc(Cl)c(Cc3cc4ccccc4s3)c2)C(OC(=O)c2ccccc2)C(OC(=O)c2ccccc2)C1O)c1ccccc1 (stereo unspecified) | 215 to 217 |
| CC(C)(C)OC(=O)Nc1ccc(-c2ccc(-c3ccccc3)cc2)cc1NC(=O)CC(=O)c1cccc(C#N)c1 | 214 to 216 |
| OCc1ccc(OCCCCCCCCCCC2c3c(c4ccccc4c4ccccc34)-c3c2c2ccccc2c2ccccc32)cc1 | 64 to 66 |
| O=C(O)CN(CCN(CC(=O)O)CC(=O)O)CCN(CC(=O)O)CC(=O)Nc1ccccc1 | 125 |
| COc1ccc2[nH]c3cc(C(=O)O)c4c(c3c2c1)C(=O)NC4=O | > 300 |
| O=CNc1ccc(-c2cc[nH]n2)cc1 | 139 to 141 |
| Cc1ccccc1C(CCC(=O)O)Oc1cc(OCc2ccsc2)ccc1-c1nc(C(=O)O)co1 (racemic) | 178 to 179 |
| COc1cc2c3c(n(C)c(=O)c2cc1OC)-c1cc2c(cc1C3=CCCCI)OCO2 | 173 to 174 |
| Cc1ccnc2c(Oc3ccccc3N)cccc12 | 160 to 161 |
| CC(C)(C)c1cc(SCc2cccc(C#N)c2)cc(C(C)(C)C)c1O | 61 to 63 |
| Cc1c(-c2ccccc2)sc2c1c(=O)c(C(=O)C(C)C)cn2Cc1c(F)cccc1F | 205 to 207 |
| C=C(COc1ccc(C(=O)CCC(=O)OC)cc1)COc1ccc(C(C)=O)c(O)c1CCC | 89 to 90 |
| c1ccc2c(c1)CC1CN(Cc3c[nH]c4ncccc34)CCN21 (stereo unspecified) | 197 to 198 |
| CC(C)NC(C(N)=S)c1ccccc1 (stereo unspecified) | 98.6 |
| CCC1(C)Oc2cccc(O)c2O1 (stereo unspecified) | 48 to 50 |
| O=S(=O)(Nc1ccc2c(OCc3ccc(I)cc3)cccc2c1)C(F)(F)F | 120 to 122 |
| CC(C)CCCC(C)C1CCC2C3=CCC4C(C)(C)C(OC(=O)c5ccccc5)CCC4(C)C3CCC21C (stereo unspecified) | 160 to 161 |

Second part, the molecule after the results:

| melting point [°C] | Structure (SMILES) |
| --- | --- |
| 170 to 173 | Cn1cc(C(=O)c2ccccc2)c2c(Nc3cccc(N)c3)ncnc21 |
| 205 to 206 | Cn1cc(C2CCN(CCCCNC(=O)c3ccc(-c4ccc(C(F)(F)F)cc4)cc3)CC2)c2ccccc21 |
| 124 to 126 | COc1cc(C(=O)N(C(C)C)C2CCCCC2)ccc1Cn1c(CO)nc2cccnc21 |
| > 250 | CS(=O)(=O)N1CCCn2c(nc3c(N)nc4cccnc4c32)C1 |
| 177 to 178 | O=C(Nc1ccc(Oc2ccccc2)cc1)N1CCN(c2ncnc3cc(F)c(F)cc23)CC1 |
| 162 to 164 | O=C1N(Cc2ccc3nsnc3c2)c2ccccc2C12COc1cc3c(cc12)CCO3 (stereo unspecified) |
| 150 to 151 | CNc1nc(C)c(C)cc1NC(=O)N1CCN(c2cc(OC)cc(OC)c2)CC1 |
| 230 | Nc1c(N=O)c(=O)n(C2CC2)c(=O)n1C1CC1 |
| 98 to 100 | CCOC(=O)Cc1ccc2c(c1)C(=O)c1ccccc1CS2 |
| 95.5 to 96.5 | Cc1cccc(N2CCN(CCc3c(C)nc4ccccn4c3=O)CC2)c1 |
| 244 to 246 | COc1ccc(S(=O)(=O)N(Cc2cccnc2)c2c(C(=O)O)cnc3onc(C)c23)cc1 |
| 142 | COc1ccc2c(c1)CCC([C@@H]1CC[C@H](O)[C@@]1(C)CC(=O)O)C2 (stereo partly specified) |
| 194 | O=C(N1CCOCC1)n1nc2c(Cl)c(Cl)c(Cl)c(Cl)c2n1 |
| 89 to 91 | C#CCCOc1cc(N2C(=O)CC(C(F)(F)F)CC2=O)c(F)cc1Cl |
| 213 to 215 | CCOc1cc2c(Nc3cc(OC)c(Cl)cc3Cl)c(C#N)cnc2cc1I |
| 212 to 214 | CC(C)Nc1nc2c(Cl)cc(Cl)cc2n1[C@H]1O[C@@H](CO)[C@H](O)[C@@H]1O |
| 138 | COC(=O)C(Cc1ccccc1)C(=O)N1CCC(C(=O)O)CC1 (stereo unspecified) |
| 162 to 164 | CC(C)n1cnc2c(NCc3cc(O)ccc3O)nc(NC[C@@H](C)O)nc21 |
| 117 to 118 | O=C(CC1CCCC1)Nc1ccc2c(c1)C(=O)CCC2 |
